Test results: US6906094B2, “1,2,4-tribsubstituted benzenes as inhibitors of 15-lipoxygenase” (Warner-Lambert Company, priority 2000, dated 2005)

Tests used:
human 15-LO = target: T1, human 15-LO (Homo sapiens, UniProt P16050); assay: Human Lysate 15-LO Assay (HUM15LO); type: biochemical; settings: recombinant human 15-LO, 174 μM linoleic acid, 15 minutes at 4° C., 13-HODE quantitated
T1 construct: made in house; host or cells: Sf9 insect cells (baculovirus, Bac-to-Bac)
T1 sequence (P16050 1-662): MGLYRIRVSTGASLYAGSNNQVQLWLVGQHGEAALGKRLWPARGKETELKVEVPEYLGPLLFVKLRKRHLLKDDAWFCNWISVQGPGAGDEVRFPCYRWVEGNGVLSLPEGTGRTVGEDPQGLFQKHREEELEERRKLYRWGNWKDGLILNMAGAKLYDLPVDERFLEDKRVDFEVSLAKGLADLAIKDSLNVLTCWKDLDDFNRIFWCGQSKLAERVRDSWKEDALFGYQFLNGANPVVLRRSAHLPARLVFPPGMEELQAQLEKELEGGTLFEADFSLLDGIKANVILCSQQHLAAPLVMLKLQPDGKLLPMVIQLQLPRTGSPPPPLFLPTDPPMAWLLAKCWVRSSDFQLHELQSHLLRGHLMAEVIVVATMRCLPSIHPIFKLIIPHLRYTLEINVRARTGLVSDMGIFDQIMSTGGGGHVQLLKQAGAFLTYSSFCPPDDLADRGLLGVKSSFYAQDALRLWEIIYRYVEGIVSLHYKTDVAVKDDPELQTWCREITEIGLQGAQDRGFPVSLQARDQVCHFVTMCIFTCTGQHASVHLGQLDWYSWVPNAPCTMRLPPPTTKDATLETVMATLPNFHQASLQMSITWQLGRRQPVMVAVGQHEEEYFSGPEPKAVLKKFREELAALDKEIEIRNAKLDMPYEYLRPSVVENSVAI
Method: In the HUM15LO assay, a test compound of the present invention was incubated with 15-LO enzyme in the presence of the linoleic acid substrate. For example, a known amount of a test compound of the present invention, 100 μL of human 15-LO, and 174 μM linoleic acid in PBS containing 0.2% sodium cholate were incubated for 15 minutes at 4° C. The reaction was stopped with 100 μL of mobile phase and 10 μL of triethyl phosphite. […] 13-HODE was quantitated by comparing peak areas of individual samples with those from a standard curve generated using authentic 13-HODE. The test reaction is compared to a control reaction, which is identical to the test reaction except no test compound of the present invention is present Percent inhibition is calculated as the amount of 13-HODE produced by the test reaction divided by the amount of 13-HODE produced by the control reaction, expressed as a percent.
Human 15-LO was generated in a recombinant 15-lipoxygenase bacculovirus expression system, using Gibco/BRL/Life Technologies' Bac-to-Bac expression reagents; T4 DNA ligase, Kanamycin, Gentamicin, tetracycline, penicillin, streptomycin, Bluo-gal, IPTG, DH10Bac competent cells, SOC, LB medium, Sf-900 II SFM media, Sf9 insect cells, Cell Fectin, and EcoRI, BamHI and KpnI restriction enzymes.

[1] = target: T2, rabbit reticulocyte 15-LO (Oryctolagus cuniculus, UniProt P12530); assay: Rabbit Reticulocyte 15-LO Assay (H15LO); type: biochemical; settings: 2 U rabbit reticulocyte 15-LO, 174 μM linoleic acid, 15 minutes at 4° C., 13-HODE quantitated
T2 construct: 15-LO is obtained from phenylhydrazine-treated rabbits and purified according to the method of Rapoport; from tissue; host or cells: reticulocytes of phenylhydrazine-treated rabbits
T2 sequence (P12530 1-663): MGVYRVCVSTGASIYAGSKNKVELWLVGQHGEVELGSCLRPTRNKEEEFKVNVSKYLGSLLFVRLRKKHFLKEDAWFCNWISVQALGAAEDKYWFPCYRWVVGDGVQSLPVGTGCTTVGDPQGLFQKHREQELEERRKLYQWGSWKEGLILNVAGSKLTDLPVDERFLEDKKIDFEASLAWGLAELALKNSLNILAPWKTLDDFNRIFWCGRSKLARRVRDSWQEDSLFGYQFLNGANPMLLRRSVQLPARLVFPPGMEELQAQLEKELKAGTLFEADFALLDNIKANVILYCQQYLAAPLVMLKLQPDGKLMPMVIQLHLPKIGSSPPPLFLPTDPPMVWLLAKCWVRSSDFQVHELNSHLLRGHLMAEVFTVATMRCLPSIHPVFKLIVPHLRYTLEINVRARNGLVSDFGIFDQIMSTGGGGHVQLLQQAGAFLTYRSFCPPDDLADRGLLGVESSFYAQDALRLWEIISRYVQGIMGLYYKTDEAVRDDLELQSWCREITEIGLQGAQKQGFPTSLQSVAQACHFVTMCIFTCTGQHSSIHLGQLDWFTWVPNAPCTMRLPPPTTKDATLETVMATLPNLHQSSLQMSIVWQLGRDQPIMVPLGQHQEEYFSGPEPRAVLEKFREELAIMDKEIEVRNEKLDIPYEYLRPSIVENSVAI
Method: In the H15LO assay, a test compound was incubated with 15-LO enzyme in the presence of the linoleic acid substrate. For example, 2 units (U) of rabbit reticulocyte 15-LO and 174 μM linoleic acid were incubated with a known amount of a test compound of the present invention for 15 minutes at 4° C. The total reaction volume was 100 μL in phosphate buffer saline (PBS) containing 0.2% sodium cholate. The reaction was stopped with 100 μL of mobile phase and […] of triethyl phosphite. […] 13-HODE was quantitated by comparing peak areas of individual samples with those from a standard curve generated using authentic 13-HODE.
15-LO is obtained from phenylhydrazine-treated rabbits and purified according to the method of Rapoport (Rapoport et al., European Journal of Biochemistry, 1979;96:545-561).

Molecule | IC50 (human 15-LO) | IC50 [1]
CCCCCCCCCCCCOC(=O)NS(=O)(=O)Nc1cc(-c2cc3cc(F)c(F)cc3[nH]2)ccc1OC [Example 1, Carbamic Acid, [[[5-(5,6-difluoro-IH-indol-2-yl)-2-methoxyphenyl]amino]-sulfonyl]-, Dodecyl Ester] | 6 nM | 17 nM
COc1ccc(C(=O)Nc2ccc(F)c(F)c2)cc1NS(=O)(=O)NC(=O)OCCN1CCOCC1 [Example 2, Carbamic Acid, [[[5[[(3,4-difluorophenyl)amino]carbonyl]-2-methoxyphenyl]-amino]sulfonyl]-, 2-(4morpholinyl)ethyl ester] | 384 nM | –
COc1ccc(C(=O)Nc2ccc(F)c(F)c2)cc1NS(=O)(=O)NC(=O)OCCCN(C)C [Example 3, Carbamic Acid, [[(5-[[(3,4-diflu rophenyl)amino]carbonyl]-2-methoxyphenyl]amino]sulfonyl]-, 3-(dimethylamino)propyl Ester] | 408 nM | –
COc1ccc(C(=O)Nc2ccc(F)c(F)c2)cc1NS(=O)(=O)NC(=O)OCCN1CCCC1 [Example 4, Carbamic Acid, [[[5-[[(3,4-difluorophenyl)amino]carbonyl]-2-methoxyphenyl]amino]-suffonyl]-, 2-(1-pyrrolidinyl)ethyl ester] | 144 nM | –
COc1ccc(C(=O)Nc2ccc(F)c(F)c2)cc1NS(=O)(=O)NC(=O)OCCN(C)C [Example 5, Carbamic Acid, [[[5-[[(3,4-difluorophenyl)amino]carbonyl]-2-methoxyphenyl]amino]sulfonyl]-, 2-(dimethylamino)ethyl ester] | 240 nM | –
COc1ccc(C(=O)Nc2ccc(F)c(F)c2)cc1NS(=O)(=O)NC(=O)OCCc1cccs1 [Example 7, Carbamic Acid, [[[5-[[(3,4-difluorophenyl)amino]carbonyl]-2-methoxyphenyl]amino]sulfonyl]-, 2-(2-thienyl)ethyl ester] | 79 nM | –
CCS(=O)(=O)CCOC(=O)NS(=O)(=O)Nc1cc(C(=O)Nc2ccc(F)c(F)c2)ccc1OC [Example 8, Carbamic Acid, [[[5-[[(3,4-difluorophenyl)amino]carbonyl]-2-methoxyphenyl]amino]sulfonyl]-, 2-(ethylsulfonyl)ethyl ester] | 312 nM | –
COc1ccc(C(=O)Nc2ccc(F)c(F)c2)cc1NS(=O)(=O)NC(=O)OCCCBr [Example 9, Carbamic Acid, [[[5-[[(3,4-difluorophenyl)amino]carbonyl]-2-methoxyphenyl]amino]sulfonyl]-, 3-bromopropyl ester] | 154 nM | –
COc1ccc(-c2cc3cc(F)c(F)cc3[nH]2)cc1NS(=O)(=O)N(C)C(=O)OCCCOCc1ccccc1 [Example 13, Carbamic Acid, [[[5-(5,6-difluoro-IH-indol-2-yl)-2-methoxyphenyl]amino]-sulfonyl]methyl-, 3(phenylmethoxy)propyl ester] | 30 nM | 12 nM
COc1ccc(-c2cc3cc(F)c(F)cc3[nH]2)cc1NS(=O)(=O)NC(=O)OCC(=O)OCc1ccccc1 [Example 16, Acetic Acid, [[[[[[5-(5,6-difluoro-IH-indol-2-yl)-2-methoxyphenyl]amino]-sulfonyl]amino]carbonyl]oxy]-, phenylmethyl ester] | 10 nM | 2 nM
COc1ccc(C(=O)Nc2ccc(F)c(F)c2)cc1NS(=O)(=O)NC(=O)Nc1cc(Cl)cc(Cl)c1 [Example 17, Benzamide, 3-[[[[[(3,5-dichlorophenyl)amino]-carbonyl]amino]sulfonyl]-amino]-N-(3,4-difluorophenyl)-4-methoxy] | 37 nM | 10 nM
COc1ccc(C(=O)Nc2ccc(F)c(F)c2)cc1NS(=O)(=O)NC(=O)Nc1ccccc1 [Example 18, Benzamide, N-(3,4-difluorophenyl)-4-methoxy-3-[[[[(phenylamino)carbonyl]-amino]sulfonyl]amino]] | 142 nM | –
CCOC(=O)NS(=O)(=O)Nc1cc(C(=O)Nc2ccc(F)c(F)c2)ccc1OC [Example 19, Carbamic Acid, [[[5-[[(3,4-difluorophenyl)amino]carbonyl]-2-methoxyphenyl]amino]sulfonyl]-, Ethyl Ester] | 339 nM | –
COc1ccc(NS(=O)(=O)NC(=O)Nc2cc(C(=O)Nc3ccc(F)c(F)c3)ccc2OC)cc1 [Example 20, Benzamide, N-(3,4-difluorophenyl)-4-methoxy-3-[[[[[(4-methoxyphenyl)-amino]sulfonyl]amino]carbonyl]amino]] | 1050 nM | –
CCOC(=O)NS(=O)(=O)Nc1cc(-c2cc3ccccc3[nH]2)ccc1OC [Example 26, Carbamic Acid, [[[5-(IH-indol-2-yl)-2-methoxyphenyl]amino]sulfonyl]-, Ethyl Ester] | 630 nM | –
COc1ccc(-c2cc3cc(F)c(F)cc3[nH]2)cc1NS(=O)(=O)NC(=O)OC(C)(C)C [Example 53, Carbamic Acid, [[[5-(5,6-difluoro-indol-2-yl)-2-methoxyphenyl]amino]-sulfonyl]-, 1,1-dimethylethyl ester] | – | 23 nM
COc1ccc(C(=O)Nc2ccc(F)c(F)c2)cc1NS(=O)(=O)NC(=O)Nc1cccc([N+](=O)[O-])c1 [Example 60, Benzamide, N-(3,4-difluorophenyl)-4-methoxy-3-[[[[[(3-nitrophenyl) -amino]carbonyl]amino]sulfonyl]amino]] | 25 nM | –
COc1ccc(C(=O)Nc2ccc(F)c(F)c2)cc1NS(=O)(=O)NC(=O)Nc1cc(C(F)(F)F)cc(C(F)(F)F)c1 [Example 62, Benzamide, 3-[[[[[[3,5-bis(trifluoromethyl)phenyl]amino]-carbonyl]amino]-sulfonyl]amino]-N-(3,4-difluorophenyl)-4-methoxy] | 173 nM | –
COc1ccc(C(=O)Nc2ccc(F)c(F)c2)cc1NS(=O)(=O)NC(=O)Nc1ccc(N)cc1 [Example 63, Benzamide, 3-[[[[[(4-aminophenyl)amino]carbonyl]amino]sulfonyl]amino]-N-(3,4-difluorophenyl)-4-methoxy-, mono(trifluoroacetate)] | 214 nM | –
COc1ccc(C(=O)Nc2ccc(F)c(F)c2)cc1NS(=O)(=O)NC(=O)Nc1ccccc1 [Example 67, Benzamide, N-(3,4-difluorophenyl)-4-methoxy-3-[[[[(phenylamino)carbonyl]-amino]sulfonyl]amino]] | 182 nM | –
Carbamic Acid, [[[5-[[(3,4-difluorophenyl)amino]carbonyl]-2-methoxyphenyl]amino]sulfonyl]methyl-, Ethyl ester [Example 69] | 154 nM | –
